Data: patent publication US20250387426A1 (priority 2024, published 2025)

Assays:
[1] = test system: migraine headache; details: human, in vivo
[2] = test system: tension headache; details: human, in vivo

C[C@@H]1[C@H](c2ccccc2)C[C@H](NC(=O)c2cnc3c(c2)C[C@@]2(C3)C(=O)Nc3ncccc32)C(=O)N1CC(F)(F)F [Ubrelvy]
benefit as rescue medication [1]: not helpful

CN(C)CCC=C1c2ccccc2CCc2ccccc21 [amitriptyline]
benefit as migraine prophylactic agent [1]: without benefit

NCC(CC(=O)O)c1ccc(Cl)cc1 (centres unmarked) [baclofen]
benefit as migraine prophylactic agent [1]: without benefit
benefit as migraine prophylaxis [1]: no benefit
benefit from previous treatment [1]: no benefit

CCCCN1CCCCC1C(=O)Nc1c(C)cccc1C (centres unmarked) [bupivacaine]
pain after local anesthetic injection along superior nuchal line [1]: substantially improved for two days

Oc1ccc2c(c1)[C@@]13CCCC[C@@]1(O)[C@@H](C2)N(CC1CCC1)CC3 [butorphanol]
benefit as rescue medication [1]: without benefit

NC(=O)N1c2ccccc2C=Cc2ccccc21 [carbamazepine]
benefit as migraine prophylactic agent [1]: without benefit

COC1=C(OC)C(=O)C(C/C=C(\C)CC/C=C(\C)CC/C=C(\C)CC/C=C(\C)CC/C=C(\C)CC/C=C(\C)CC/C=C(\C)CC/C=C(\C)CC/C=C(\C)CCC=C(C)C)=C(C)C1=O [coenzyme Q10]
benefit as migraine prophylactic agent [1]: without benefit
benefit as migraine prophylaxis [1]: no benefit
effect on headache frequency [1]: did not affect the frequency of their headaches

O=C(O)Cc1ccccc1Nc1c(Cl)cccc1Cl [diclofenac]
benefit as rescue medication [1]: without benefit

CN1CCC[C@@H]1Cc1c[nH]c2ccc(CCS(=O)(=O)c3ccccc3)cc12 [eletriptan]
benefit as rescue medication [1]: consistently effective

NCC1(CC(=O)O)CCCCC1 [gabapentin]
benefit as migraine prophylactic agent [1]: without benefit
benefit as migraine prophylaxis [1]: no benefit
benefit from previous treatment [1]: no benefit

CC(C)Cc1ccc(C(C)C(=O)O)cc1 (centres unmarked) [ibuprofen]
headache relief [2]: may resolve with ibuprofen
benefit from previous treatment [1]: no benefit

CCCCc1nc(Cl)c(CO)n1Cc1ccc(-c2ccccc2-c2nn[nH]n2)cc1 [losartan]
benefit as migraine prophylaxis [1]: no benefit

CCN(CC)CCNC(=O)c1cc(Cl)c(N)cc1OC [metoclopramide]
tolerability [1]: intolerant

C[C@]12C=CC(=O)C=C1CC[C@@H]1[C@@H]2C(=O)C[C@@]2(C)[C@H]1CC[C@]2(O)C(=O)CO [prednisone]
benefit as migraine prophylactic agent [1]: without benefit

CC(C)C[C@H](CN)CC(=O)O [pregabalin]
comorbid neuropathic facial pain [2]: treated effectively
benefit as migraine prophylactic agent [1]: without benefit

CC(C)NCC(O)COc1cccc2ccccc12 (centres unmarked) [propranolol]
benefit as migraine prophylactic agent [1]: without benefit
benefit from previous treatment [1]: no benefit
tolerability [1]: caused dizziness

Cc1cc2nc3c(=O)[nH]c(=O)nc-3n(C[C@H](O)[C@H](O)[C@H](O)CO)c2cc1C [riboflavin]
effect on headache frequency [1]: did not affect the frequency of their headaches

CN(C)CCc1c[nH]c2ccc(Cn3cncn3)cc12 [rizatriptan]
adverse effect of rescue medication [1]: severe elevation in their blood pressure
benefit as rescue medication [1]: no longer effective
share of time the rescue medication worked [1]: approximately 20 % of the time

Clc1ccc2nsnc2c1NC1=NCCN1 [tizanidine]
benefit as migraine prophylactic agent [1]: without benefit
benefit as migraine prophylaxis [1]: partially helpful

CC1(C)O[C@@H]2[C@@H](CO[C@@]3(COS(N)(=O)=O)OC(C)(C)O[C@@H]23)O1 [topiramate]
benefit as migraine prophylactic agent [1]: without benefit
severe migraine headache frequency [1]: 5 to 7 days a week
tolerability [1]: could not tolerate the side effects

CCCC(CCC)C(=O)O [valproic acid]
benefit as migraine prophylactic agent [1]: without benefit

CN(C)CCc1c[nH]c2ccc(C[C@H]3COC(=O)N3)cc12 [zolmitriptan nasal spray, zolmitriptan]
benefit as rescue medication [1]: without benefit

NS(=O)(=O)Cc1noc2ccccc12 [zonisamide]
benefit as migraine prophylactic agent [1]: without benefit

B1: Ajovy: prophylactic agent tried for migraines (antibody, chains of the INN, looked up, V domains shown)
VH: EVQLVESGGGLVQPGGSLRLSCAASGFTFSNYWISWVRQAPGKGLEWVAEIRSESDASATHYAEAVKGRFTISRDNAKNSLYLQMNSLRAEDTAVYYCLAYFDYGLAIQNYWGQGTLVTVSS
VL: EIVLTQSPATLSLSPGERATLSCKASKRVTTYVSWYQQKPGQAPRLLIYGASNRYLGIPARFSGSGSGTDFTLTISSLEPEDFAVYYCSQSYNYPYTFGQGTKLEIK
benefit as migraine prophylactic agent [1]: without benefit

B2: Emgality: prophylactic agent prescribed for chronic migraine (antibody, chains of the INN, looked up, V domains shown)
VH: QVQLVQSGAEVKKPGSSVKVSCKASGYTFGNYWMQWVRQAPGQGLEWMGAIYEGTGKTVYIQKFADRVTITADKSTSTAYMELSSLRSEDTAVYYCARLSDYVSGFGYWGQGTTVTVSS
VL: DIQMTQSPSSLSASVGDRVTITCRASKDISKYLNWYQQKPGKAPKLLIYYTSGYHSGVPSRFSGSGSGTDFTLTISSLQPEDFATYYCQQGDALPPTFGGGTKVEIK
frequency of headaches with throbbing, light and sound sensitivity [2]: decreased to around once or twice per week
benefit as migraine prophylactic agent [1]: without benefit
benefit of subsequent treatment [1]: reduced the pain somewhat, but had not reduced the frequency or duration
migraine frequency [1]: 2 to 3 days/week
tolerability [1]: caused unwanted side effects
